# Literature values in US20170290285A1, “HIGH REBAUDIOSIDE-C PLANT VARIETAL AND COMPOSITIONS EXTRACTED THEREFROM WITH HIGH REBAUDIOSIDE-C AND TOTAL STEVIOL GLYCOSIDE CONTENT” (GLG Life Tech Corporation, priority 2014, published 2017).
# Columns and labels:
# [1] = for Relative sweetness: Table 1
# [2] = heating at high temperature, cooking or barbecuing
compound,measurement,setting,value
C[C@H](CC[C@@H](O[C@@H]1O[C@H](CO[C@@H]2O[C@H](CO)[C@@H](O)[C@H](O)[C@H]2O)[C@@H](O)[C@H](O)[C@H]1O[C@@H]1O[C@H](CO)[C@@H](O)[C@H](O)[C@H]1O)C(C)(C)O)[C@H]1CC[C@@]2(C)[C@@H]3CC=C4[C@@H](CC[C@H](O[C@@H]5O[C@H](CO[C@@H]6O[C@H](CO)[C@@H](O)[C@H](O)[C@H]6O)[C@@H](O)[C@H](O)[C@H]5O)C4(C)C)[C@]3(C)[C@H](O)C[C@]12C [Mogroside V],"sweetness, times that of sugar","[1]; versus sugar, b159",about 300 times
same,effect of heating on flavor,[2],does not affect the flavor
C=C1C[C@@]23CC[C@H]4[C@@](C)(CCC[C@@]4(C)C(=O)[O-])[C@@H]2CC[C@]1(O[C@@H]1O[C@@H](CO)[C@@H](O)[C@H](O)[C@@H]1O[C@@H]1O[C@@H](CO)[C@@H](O)[C@H](O)[C@@H]1O)C3.[Na+] [Stevlolbioside],Relative sweetness,[1],90
same,"Solubility in water, %",,0.03%
Rebaudioside C,"sweetness, × of sugar","[1]; versus sugar, list b13-b15",150-200 × of sugar
Rubusoside,Relative sweetness,[1],110
